SMILES strings stand for the structures. Where a name gives a salt, the structure may show the parent alone.

The IC50 is the concentration at which inhibition is half-maximal.

In data set [1] the target is FLT3-ITD (internal tandem duplication) (Homo sapiens, UniProt P36888). Briefly: Radiometric HotSpot kinase assay, FLT3-ITD. The format is biochemical. Conditions: ATP 30 μM; peptide substrate 20 μM. The procedure: (§1) Kinase IC50 values were determined by Reaction Biology Corp. (Malvern, PA, USA) in the Radiometric HotSpot™ Assay using recombinantly expressed kinase enzymes. Compound (I) was tested in a 10-dose IC50 curve in duplicate. Enzymes were tested at the Km [ATP] for each enzyme using the Reaction Biology binning structure. Kinase reactions were initiated by the addition of protein or peptide substrate and [γ-^33P]-adenosine triphosphate (ATP). Phosphorylated substrates were captured by spotting of the reaction mix on filter membranes, and enzymatic activity was quantified by liquid scintillation counting. Substrates and ATP concentrations are as follows: • FLT3: Peptide substrate, [EAIYAAPFAKKK], 5 μM: ATP 50 μM • FLT3-ITD (internal tandem duplication): Peptide substrate, [EAIYAAPFAKKK], 20 μM: ATP, 30 μM • FLT3 (D835Y): Peptide substrate, [EAIYAAPFAKKK], 5 μM: ATP 20 μM • TAK1: Casein, 1 mg/mL: ATP, 20 μM

Data set [2] has as its system mature 160 kDa form of FLT3-ITD. Briefly: Immunoblot of FLT3 in MV-4-11 cells. Conditions: 4 hours, dose-dependent. The format is cell-based, human. The procedure: (§2) MV-4-11 cells (FLT3 LOH, FLT3-ITD positive cells) were treated with the indicated concentrations of Compound (I) tartrate for 4 hours at 37° C. and 5% CO2. Lysates were analyzed by immunoblot analysis with antibodies against FLT3 (Cell Signaling Technology, Inc., Cat. #3462), PARP (Cell Signaling Technology, Inc., Cat. #9542) and GAPDH (Millipore, Cat. #MAB374). Protein bands were visualized using a LI-COR Odyssey near infrared imager and representative data are shown. Compound (I) tartrate treatment increases the expression of the mature 160 kDa form of FLT3-ITD in MV-4-11 cells in a dose-dependent manner. Apoptotic cell death as measured by PARP cleavage was induced by Compound (I) tartrate treatment.
In general terms: In western blotting, separated proteins are transferred to a membrane and probed.

In data set [3] the test system is MV-4-11 xenografts. The experiment in a line: MV-4-11 xenograft model of human AML in CD-1 Nude mice. The format is in vivo. Conditions: for tumor status after 10 days of treatment: established MV-4-11 xenografts. The procedure:
Female 8- to 10-week-old CD-1 Nude mice (Charles River Laboratories) with established MV-4-11 xenografts were treated for 21 days (n=8). MV-4-11 cells is a human AML cell line which endogenously expresses a Fms Related Receptor Tyrosine Kinase 3 (FLT3) internal tandem duplication (ITD) mutation. Animal weights were monitored daily, and tumor volume was measured three times per week. Tumor volume (mm^3) was defined as follows, length×width^2/2. Percentage tumor growth inhibition (% TGI) was defined as follows, 100×[1−(TVf,treated−TVi,treated)/(TVf,control−TVi,control)], where TVf is the average tumor volume at the end of study, and TVi is the average tumor volume at the initiation of treatment. In cases where tumor regression occurred, percentage tumor regression was defined as follows, 100×[1−(TVf,treated/TVi,treated)]. At the completion of the study, the mice were sacrificed by an anesthetic overdose. The Institutional Animal Care and Use Committee of the University Health Network approved all animal procedures. […] Data are represented as mean±SEM. p values were calculated using Student's/test.
For orientation: Xenograft models place foreign cells or tissue in a host animal.

The test system of data set [4] is cell surface FLT3-ITD. The experiment in a line: Flow cytometry, cell surface FLT3-ITD in MV-4-11 cells. Format: cell-based, human. The note with it: 100 nM, 4 hours. On the procedure:
MV-4-11 cells were treated with 100 nM Compound (I) tartrate or DMSO control for 4 hours at 37° C. and 5% CO2 and stained with PE-FLT3 (Beckman Coulter, Cat. IM2234U) or an isotype control antibody and analyzed on a BD LSRFortessa II flow cytometry analyzer. Data were analyzed using FlowJo software and representative data are shown. […] Compound (I) tartrate treatment increases the cell surface expression of FLT3-ITD in MV-4-11 cells.

Data set [5] concerns PARP cleavage (apoptotic cell death). Briefly: Immunoblot of PARP cleavage in MV-4-11 cells. The format is cell-based, human. Conditions: 4 hours. On the procedure:
as §2

Data set [6] has as its system c-KIT (CD117). The experiment in a line: Flow cytometry, cell surface c-KIT in primary human AML cells. Format: cell-based. Conditions: FLT3-ITD positive primary AML cells, viable CD14− blasts, 48 and 72 hours, dose-dependent. The procedure: Patient samples were obtained from Dr. Mark Minden (Princess Margaret Cancer Centre, Toronto, Ontario, Canada). FLT3-ITD positive AML cells were treated with the indicated concentrations of Compound (I) for 48 and 72 hours at 37° C. and 5% CO2 and stained with APC-CD45, PECy7-CD38, APC/Fire 750-CD33, PerCP-CD14, PE-FLT3 (Beckman Coulter, Cat. IM2234U), PE/Dazzle 594-CD117 (BioLegend, Cat. #313226) or isotype control antibodies and analyzed on a BD LSRFortessa II flow cytometry analyzer. Data were analyzed using FlowJo software and representative data are shown. Compound (I) treatment increases the cell surface expression of FLT3 and c-KIT in a dose-dependent manner in viable CD14^− AML blast cells. Similar results were obtained in additional FLT3-ITD positive primary AML samples (data not shown).

Data set [7] has as its target T1, FLT3 (Homo sapiens, UniProt P36888).
T1 construct: purchased Reaction Biology Corp. (Malvern, PA, USA)
Briefly: Radiometric HotSpot kinase assay, FLT3. Format: biochemical. The note with it: ATP 50 μM; peptide substrate 5 μM. The procedure: as §1

For data set [8], the system named is MOLM-14. The experiment in a line: Growth inhibition, Alamar Blue. Format: cell-based. The note with it: Homo sapiens, 72 h; MOLM-14, AML M5; FLT3 ITD + wild-type, protein expressed; 3 days. On the procedure: Cell lines were obtained from American Type Culture Collection (ATCC) and maintained according to the supplier's instructions, and from Dr. Mark Minden (Princess Margaret Cancer Centre, Toronto, Canada). Short tandem repeat (STR) profiling was used to verify authenticity of the cell lines. Peripheral blood from healthy human donors was obtained from the Hematology Malignancy Tissue Bank at the University Health Network. Peripheral blood mononuclear cells (PBMC) were prepared from the blood by density gradient centrifugation using Ficoll-Paque PLUS by manufacturer's instructions (GE Healthcare Life Sciences). […] Compound (I) tartrate was prepared as a 10 mM stock solution in 100% DMSO. The stock solution was diluted with RPMI-1640 (Invitrogen) containing 10% FBS (fetal bovine serum) such that the final concentrations ranged from 300 fM to 300 μM. Aliquots (20 μL) from each concentration were overlaid to 180 μL of pre-seeded cells to achieve final concentrations of 30 fM to 30 μM. After 3 days, cell growth in each well was assessed by Alamar Blue assay reagent (Invitrogen). Raw fluorescence (λEM=590 nm) values were adjusted by subtracting the average of the baseline readings from untreated cells assessed one day after cell seeding. Relative cell growth was calculated by comparing to DMSO-treated cells. The concentrations at which cell growth was inhibited by 50% (growth inhibition IC50) were calculated using GraphPad PRISM software (GraphPad Software Inc.).

T1 sequence (P36888 27-993): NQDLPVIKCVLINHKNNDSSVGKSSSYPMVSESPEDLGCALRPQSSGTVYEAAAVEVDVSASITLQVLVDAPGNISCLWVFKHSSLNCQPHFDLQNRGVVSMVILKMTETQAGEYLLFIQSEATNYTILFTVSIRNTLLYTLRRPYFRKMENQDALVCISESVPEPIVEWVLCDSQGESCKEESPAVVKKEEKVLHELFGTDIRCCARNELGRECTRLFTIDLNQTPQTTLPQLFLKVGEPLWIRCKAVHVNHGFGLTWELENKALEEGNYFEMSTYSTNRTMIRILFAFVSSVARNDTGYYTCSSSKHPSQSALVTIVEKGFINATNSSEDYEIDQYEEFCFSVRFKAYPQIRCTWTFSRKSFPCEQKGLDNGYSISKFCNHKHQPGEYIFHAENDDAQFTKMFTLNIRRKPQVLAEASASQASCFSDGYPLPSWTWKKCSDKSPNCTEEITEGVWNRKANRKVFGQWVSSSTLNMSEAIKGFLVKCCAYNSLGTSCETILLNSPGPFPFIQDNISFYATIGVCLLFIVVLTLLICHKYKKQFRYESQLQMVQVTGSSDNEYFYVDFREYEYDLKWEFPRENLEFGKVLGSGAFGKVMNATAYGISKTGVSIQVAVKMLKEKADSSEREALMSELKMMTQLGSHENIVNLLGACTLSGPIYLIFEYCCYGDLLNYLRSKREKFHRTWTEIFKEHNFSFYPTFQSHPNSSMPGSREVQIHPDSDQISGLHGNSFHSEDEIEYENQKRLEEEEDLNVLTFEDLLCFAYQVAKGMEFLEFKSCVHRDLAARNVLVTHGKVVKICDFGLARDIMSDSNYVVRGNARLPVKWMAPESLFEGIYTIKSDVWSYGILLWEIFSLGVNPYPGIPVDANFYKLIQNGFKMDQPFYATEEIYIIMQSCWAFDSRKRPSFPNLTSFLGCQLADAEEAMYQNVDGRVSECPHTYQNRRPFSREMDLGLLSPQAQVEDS

Take `CN1CCN(c2ccc3nc(-c4c(N)c5ccsc5[nH]c4=O)[nH]c3c2)CC1` [Compound (I) tartrate, 4-amino-5-(6-(4-methylpiperazin-1-yl)-1H-benzo[d]imidazol-2-yl)thieno[2,3-b]pyridin-6(7H)-one]: the concentration for half-maximal inhibition (IC50) in data set [1] was 0.13 nM; in data set [7] it was 0.043 nM; in data set [8], 4.7 nM. For the same compound, the “expression of the mature 160 kDa form of FLT3-ITD” value in data set [2] is given as “increases”. The “tumor status after 10 days of treatment” value in data set [3] (50 mg/kg orally QD) and in data set [3] (150 mg/kg orally QD) was “tumors were undetectable” each time. In data set [3] (50 mg/kg, large tumors (≅900 mm^3)), the “effect on large tumors after 7 days of treatment” value is listed as “complete tumor regression”. Besides, the “tolerability (body weight and behavior)” value in data set [3] (CD-1 Nude mice, 21 days treatment) is “well tolerated”. In data set [4], the “cell surface expression of FLT3-ITD” value is listed as “increases”. The “apoptotic cell death as measured by PARP cleavage” value in data set [5] is listed as “induced”. For the same compound, the “cell surface expression of c-KIT (CD117)” value in data set [6] is listed as “increases”.

Source of the values: patent US20250049787A1, “TREATMENT FOR ACUTE MYELOID LEUKEMIA OR LYMPHOMA” (UNIVERSITY HEALTH NETWORK, priority 2021, published 2025).
